Reference: patent US7652046B2, “Substituted thienopyrrole carboxylic acid amides, pyrrolothiazole carboxylic acid amides, and related analogs as inhibitors of casein kinase I” (Aventis Pharmaceuticals Inc., priority 2004, dated 2010)

Biological target: T1, Casein Kinase Iε (Homo sapiens, UniProt P49674)
T1 construct: made in house
Assay: Casein Kinase Epsilon 33P-ATP Filter Plate Assay
Type: biochemical
Source text: Casein Kinase Epsilon ^33P-ATP Filter Plate Assay for Screening CKIε Inhibitors
Purpose: This assay measures the ability of compounds to inhibit the phosphorylation of the substrate casein by the enzyme casein kinase 1ε using an in vitro ^33P-ATP filtration assay. […] Materials:
Equipment: • Beckman Biomek 2000 Liquid Handling Robot • Beckman Multimek 96 Automated 96 Channel Pipettor • Millipore Vacuum Manifold Basic Kit # MAVM0960R • Titertek Multidrop Liquid Dispenser • Packard TopCount NXT Liquid Scintillation Counter
Enzyme: • Casein Kinase 1ε final concentration 0.58 mg/ml obtained from fermentation and purification processes as are well known to one skilled in the art. The above are stored as 100 μL aliquots at minus 80° C.
Compounds: • Supply compounds for testing as frozen 10 mM compound stock dissolved in 100% DMSO. Assay Conditions:
Final total assay volume per well is equal to 50 μL that one prepares as follows: • 5 μL of diluted compound stock (10, 1, 0.1, 0.01 or 0.001 μM), • 5 μL of dephosphorylated casein final concentration 0.2 μg/μL, • 20 μL of CK1ε final concentration 3 ng/μL, and • 20 μL of γ-^33P-ATP final concentration 0.02 μCi/μL mixed with cold ATP (10 μM final). Methodology: • 1. Prepare 500 mL of fresh assay buffer: 50 mM Tris pH 7.5, 10 mM MgCl2, 2 mM DTT and 1 mM EGTA • 2. Obtain compounds to be evaluated as 10 μL of 10 mM stock dissolved in 100% DMSO. Use a Biomek 2000 liquid handling robot, make serial dilutions to yield 10, 1, 0.1, 0.01 and 0.001 μM final compound dilutions added as 5 μL additions to Falcon U bottom plates. […] A routine screening assay will consist of 32 compounds, which equals 4 assay plates. • 3. Assay plate maps are set up according to the following pattern CK1ePlateMap.xls
• 4. Add 5 μL of compound as indicated, then add 5 μL of dephosphorylated casein (dissolved in distilled H20)(0.2 μg/μL) and 20 μL CK1ε (3 ng/μL) to the appropriate wells. • 5. Finally add 20 μL γ-^33P-ATP (0.02 μCi/μL)/10 μM cold ATP (equals approximately 2×10^6 CPM per well). • 6. Vortes the Falcon U-Bottom assay plate containing the above 50 μL reaction volume and then incubate at room temperature for 2 hours. • 7. At the end of 2 hours, stop the reaction by the addition of 65 μL of ice cold 2 mM cold ATP (made up in assay buffer) to the assay plates using a Beckman Multimek. • 8. At the same time add 25 μL 100% ice cold TCA made up in distilled H20 to a matching number of Millipore MAPH filter plates. • 9. Using a handheld 8-channel pipettor, transfer 100 μL of the reaction mixture from the Falcon U-Bottom Plate to the Millipore MAPH filter plates presoaked with TCA. • 10. Mix the Millipore MAPH filter plates gently and allow to sit at room temperature for at least 30 minutes to precipitate the proteins. • 11. After 30 minutes, place the filter plates on a Millipore vacuum manifold and filter at no more than 8 mm Hg as the MAPH filters tend to “air lock” at higher vacuum settings. • 12. Wash the filter plates sequentially and filter with 2×150 μL 20% TCA, 2×150 μL 10% TCA and 2×150 μL 5% TCA (total of 6 washes per plate/900 μL per well). • 13. Allow the plates to dry overnight at room temperature. The next day add 40 μL Packard Microscint-20 Scintillation Fluid per well using a Titertek Multidrop dispenser; seal the plates and count for 2 minutes/well in a Packard Topcount NXT Scintillation Counter (to provide CPM values/well). Calculation: • 1. Import Counts Per Minute (CPM) data into a proprietary data calculation and archiving database (Activity Base by IDBS version 5.0). • 2. Column 1 for each plate reflects total phosphorylation activity of the enzyme in the absence of any inhibiting compound and thus represents 100%. Column 12 reflects any nonspecific phosphorylation/retained radioactivity activity in the absence of inhibiting compound and enzyme.

T1 sequence (P49674 whole entry): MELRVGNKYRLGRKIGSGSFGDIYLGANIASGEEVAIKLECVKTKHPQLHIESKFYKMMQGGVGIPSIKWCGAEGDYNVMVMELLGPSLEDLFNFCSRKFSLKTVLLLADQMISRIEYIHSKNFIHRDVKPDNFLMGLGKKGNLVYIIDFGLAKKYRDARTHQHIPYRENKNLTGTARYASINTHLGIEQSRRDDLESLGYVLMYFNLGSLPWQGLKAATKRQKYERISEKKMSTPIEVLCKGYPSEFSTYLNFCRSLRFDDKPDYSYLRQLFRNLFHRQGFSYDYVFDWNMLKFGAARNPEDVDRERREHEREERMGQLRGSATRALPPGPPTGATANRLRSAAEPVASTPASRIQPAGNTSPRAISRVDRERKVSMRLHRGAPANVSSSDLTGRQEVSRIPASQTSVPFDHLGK

Row | Ki | Structure (SMILES)
1 | 109 nM | NC(=O)c1[nH]c2sccc2c1Sc1cc(Cl)cc(Cl)c1 [IIe, 4-(3,5-Dichlorophenyl-sulfanyl)-6H-thieno[2,3-b]pyrrole-5-carboxylic acid amide]
2 | 112 nM | NC(=O)c1[nH]c2sccc2c1Sc1cccc(Cl)c1 [IIj, 4-(3-Chlorophenyl-sulfanyl)-6H-thieno[2,3-b]pyrrole-5-carboxylic acid amide]
3 | 70.6 nM | Cc1cccc(Sc2c(C(N)=O)[nH]c3sccc23)c1 [IIk, 4-(3-Methylphenyl-sulfanyl)-6H-thieno[2,3-b]pyrrole-5-carboxylic acid amide]
4 | 157 nM | NC(=O)c1[nH]c2ccsc2c1Sc1cccc(F)c1 [Ib, 6-(3-Fluorophenyl-sulfanyl)-4H-thieno[3,2-b]pyrrole-5-carboxylic acid amide]
5 | > 10000 nM | NC(=O)c1[nH]c2ccsc2c1Sc1ccc(Cl)cc1 [Ic, 6-(4-Chlorophenyl-sulfanyl)-4H-thieno[3,2-b]pyrrole-5-carboxylic acid amide]
6 | 324 nM | NC(=O)c1[nH]c2ccsc2c1Sc1cccc(Cl)c1Cl [Il, 6-(2,3-Dichloro-phenylsulfanyl)-4H-thieno[3,2-b]pyrrole-5-carboxylic acid amide]
7 | 1270 nM | NC(=O)c1[nH]c2ccsc2c1Sc1cc(Cl)ccc1Cl [Im, 6-(2,5-Dichloro-phenylsulfanyl)-4H-thieno[3,2-b]pyrrole-5-carboxylic acid amide]
8 | 238 nM | CCc1ccccc1Sc1c(C(N)=O)[nH]c2ccsc12 [In, 6-(2-Ethylphenylsulfanyl)-4H-thieno[3,2-b]pyrrole-5-carboxylic acid amide]
9 | 78.7 nM | NC(=O)c1[nH]c2ccsc2c1Sc1cccc(Br)c1 [Io, 6-(3-Bromo-phenylsulfanyl)-4H-thieno-[3,2-b]pyrrole-5-carboxylic acid amide]
10 | 38 nM | COc1cccc(Sc2c(C(N)=O)[nH]c3ccsc23)c1 [Iq, 6-(3-Methoxy-phenylsulfanyl)-4H-thieno[3,2-b]pyrrole-5-carboxylic acid amide]
11 | 1750 nM | NC(=O)c1[nH]c2ncsc2c1Sc1ccccn1 [Ix, 6-(Pyridin-2-ylsulfanyl)-4H-pyrrolo[2,3-d]thiazole-5-carboxylic acid amide]

More lines, now with the values behind:

Row | Structure (SMILES) | Ki
12 | NC(=O)c1[nH]c2sccc2c1Sc1ccccn1 [IIa, 4-(pyridin-2-ylsulfanyl)-6H-thieno[2,3-b]pyrrole-5-carboxylic acid amide] | 64 nM
13 | NC(=O)c1[nH]c2sccc2c1Sc1ccncc1 [IId, 4-(Pyridin-4-ylsulfanyl)-6H-thieno[2,3-b]-pyrrole-5-carboxylic acid amide] | 1070 nM
14 | NC(=O)c1[nH]c2sccc2c1Sc1cccs1 [IIf, 4-(Thiophen-2-yl-sulfanyl)-6H-thieno[2,3-b]pyrrole-5-carboxylic acid amide] | 1450 nM
15 | COc1cccc(Sc2c(C(N)=O)[nH]c3sccc23)c1 [IIh, 4-(3-Methoxyphenyl-sulfanyl)-6H-thieno[2,3-b]pyrrole-5-carboxylic acid amide] | 24.7 nM
16 | COc1cccc(Sc2c(C(N)=O)[nH]c3sc(C)nc23)c1 [IIm, 6-(3-Methoxyphenyl-sulfanyl)-2-methyl-4H-pyrrolo[3,2-d]thiazole-5-carboxylic acid amide] | 68 nM
17 | Cc1nc2c(Sc3cccc(OC(F)(F)F)c3)c(C(N)=O)[nH]c2s1 [IIp, 6-(3-Trifluoromethoxy-phenylsulfanyl)-2-methyl-4H-pyrrolo[3,2-d]thiazole-5-carboxylic acid amide] | 4030 nM
18 | NC(=O)c1[nH]c2sc(Sc3ccccc3)nc2c1Sc1ccccc1 [IIq, 2,6-Bis-phenylsulfanyl-4H-pyrrolo[3,2-d]thiazole-5-carboxylic acid amide] | 334 nM
19 | COc1cccc(Sc2nc3c(Sc4cccc(OC)c4)c(C(N)=O)[nH]c3s2)c1 [IIr, 2,6-Bis-(3-methoxy-phenylsulfanyl)-4H-pyrrolo[3,2-d]thiazole-5-carboxylic acid amide] | 333 nM
20 | NC(=O)c1[nH]c2ccsc2c1Sc1ccccc1 [Ia, 6-Phenylsulfanyl-4H-thieno[3,2-b]pyrrole-5-carboxylic acid amide] | 544 nM
21 | NC(=O)c1[nH]c2ccsc2c1Sc1ccccn1 [Ie, 6-(Pyridin-2-ylsulfanyl)-4H-thieno[3,2-b]pyrrole-5-carboxylic acid amide] | 159 nM
22 | Cc1ccc(Sc2c(C(N)=O)[nH]c3ccsc23)cc1 [If, 6-p-Tolylsulfanyl-4H-thieno[3,2-b]pyrrole-5-carboxylic acid amide] | 3090 nM
23 | NC(=O)c1[nH]c2ccsc2c1Sc1cccs1 [Ig, 6-(Thiophen-2-yl-sulfanyl)-4H-thieno[3,2-b]pyrrole-5-carboxylic acid amide] | 915 nM
24 | NC(=O)c1[nH]c2ccsc2c1Sc1cc(Cl)cc(Cl)c1 [Ih, 6-(3,5-Dichloro-phenylsulfanyl)-4H-thieno[3,2-b]pyrrole-5-carboxylic acid amide] | 71 nM
25 | NC(=O)c1[nH]c2ccsc2c1Sc1ccncc1 [Ii, 6-(Pyridin-4-ylsulfanyl)-4H-thieno[3,2-b]pyrrole-5-carboxylic acid amide] | 1680 nM
26 | Cc1cccc(Sc2c(C(N)=O)[nH]c3ccsc23)c1 [Ij, 6-m-Tolylsulfanyl-4H-thieno[3,2-b]pyrrole-5-carboxylic acid amide] | 116 nM
27 | Cc1ccccc1Sc1c(C(N)=O)[nH]c2ccsc12 [Ik, 6-o-Tolylsulfanyl-4H-thieno[3,2-b]pyrrole-5-carboxylic acid amide] | 468 nM
28 | Cc1cc(C)cc(Sc2c(C(N)=O)[nH]c3ccsc23)c1 [Ip, 6-(3,5-Dimethylphenylsulfanyl)-4H-thieno[3,2-b]pyrrole-5-carboxylic acid amide] | 357 nM
29 | COc1ccccc1Sc1c(C(N)=O)[nH]c2ccsc12 [Ir, 6-(2-Methoxy-phenylsulfanyl)-4H-thieno[3,2-b]pyrrole-5-carboxylic acid amide] | 331 nM
30 | NC(=O)c1[nH]c2ccsc2c1Sc1ccccc1C(F)(F)F [Is, 6-(2-Trifluoromethyl-phenylsulfanyl)-4H-thieno[3,2-b]pyrrole-5-carboxylic acid amide] | 481 nM
31 | NC(=O)c1[nH]c2ccsc2c1Sc1ccccc1F [It, 6-(2-Fluoro-phenylsulfanyl)-4H-thieno[3,2-b]pyrrole-5-carboxylic acid amide] | 425 nM
32 | NC(=O)c1[nH]c2ccsc2c1Sc1cccc(OC(F)(F)F)c1 [Iu, 6-(3-Trifluoromethoxy-phenylsulfanyl)-4H-thieno[3,2-b]pyrrole-5-carboxylic acid amide] | 562 nM
33 | NC(=O)c1[nH]c2ncsc2c1Sc1ccccc1 [Iv, 6-Phenylsulfanyl-4H-pyrrolo[2,3-d]thiazole-5-carboxylic acid amide] | 4550 nM
34 | NC(=O)c1[nH]c2ncsc2c1Sc1cccc(F)c1 [Iw, 6-(3-Fluoro-phenylsulfanyl)-4H-pyrrolo[2,3-d]thiazole-5-carboxylic acid amide] | 2030 nM
